Article PMC4879574, “Identification of Leishmania donovani Topoisomerase 1 inhibitors via intuitive scaffold hopping and bioisosteric modification of known Top 1 inhibitors” (Scientific Reports, 2016)
Values joined by “and” are separate entries in the source; they are usually repeats but may differ in a detail not shown here. Equal values may be shown once. Read-outs that look alike come from different tables or passages of the source.

Key:
[1] = biological target: Leishmania donovani Topoisomerase 1 (LdTop1) (Leishmania donovani, UniProt A0A3Q8IHS4+Q8WQM6); assay: Plasmid DNA relaxation assay, LdTop1 (simultaneous incubation); type: biochemical
Experimental: (§1) To investigate the inhibitory effect of our library compounds on the DNA relaxation activity of the recombinant Human and Leishmania topoisomerase 1 (Table 2), assays were performed involving supercoiled plasmid DNA, the enzymes (HTop1 and LdTop1) and our molecules. The enzymes were purified by the standard literature procedure.
All the experiments were conducted thrice and representative data from once set of them are expressed as mean ± SD.
(§2) The type I DNA topoisomerase are assayed by decreased mobility of the relaxed isomers of supercoiled pBS (SK^+) [pBlue-script (SK^+)] DNA in agarose gel. The relaxation assay was carried out as described previously with LdTop1B and HTop I, diluted in the relaxation buffer (25 mM Tris–HCl, pH 7.5, 5% glycerol, 0.5 mM DTT, 10 mM MgCl2, 50 mM KCl, […] and […] BSA) and supercoiled plasmid pBS (SK^+) DNA (85–95% were negatively supercoiled, with remainder being nicked circles)[9][28][29]. The reconstituted enzyme LdTop1B was assayed at 50 mM KCl concentration as described before. For all kinetic studies, the reaction mixtures containing the buffer and DNA were heated to 37 °C before addition of the enzymes. The reactions were rapidly quenched using stop solution and kept on ice. The gels were stained with ethidium bromide (EtBr) ([…]) and the amount of supercoiled monomer DNA band fluorescence were quantified by integration using Gel Doc 2000 under UV illumination (Bio-Rad Quantity One Software), as described previously.
Cells harvested from 1 litre of culture were separately lysed by lysozyme/sonication, and the proteins were purified through Ni-NTA (Ni^2+-nitriloacetate-agarose column (Qiagen, Hilden, Germany) followed by a phospho-cellulose column (P11 cellulose; Whatman, Maidstone Kent, UK) as described previously. Finally, the purified proteins LdTOP1L and LdTOP1S were stored at −70 °C. The concentrations of each protein were quantified by using Bradford Reagent (PIERCE, Thermo Fisher Scientific Inc., Rockford, USA). Purified LdTOP1L was mixed with purified LdTOP1S at a molar ratio of 1:1 to a total protein concentration of 0.5 mg/ml in reconstitution buffer [50 mM potassium phosphate, pH 7.5, 0.5 mM DTT, 1 mM EDTA, 0.1 mM PMSF and 10% (v/v) glycerol]. The mixture was dialyzed overnight at 4 °C and dialyzed fractions were used for plasmid relaxation activity.

Human Top1 (HTop1) = biological target: T1, Human Top1 (HTop1) (Homo sapiens, UniProt P11387); assay: Plasmid DNA relaxation assay, HTop1; type: biochemical; settings: averages of three experiments, read-out: HTop1 inhibition (EC50)
T1 construct: made in house; host or cells: Sf-9 insect cells infected with recombinant baculovirus (gift from Prof. J. J. Champoux)
T1 sequence (P11387 1-765): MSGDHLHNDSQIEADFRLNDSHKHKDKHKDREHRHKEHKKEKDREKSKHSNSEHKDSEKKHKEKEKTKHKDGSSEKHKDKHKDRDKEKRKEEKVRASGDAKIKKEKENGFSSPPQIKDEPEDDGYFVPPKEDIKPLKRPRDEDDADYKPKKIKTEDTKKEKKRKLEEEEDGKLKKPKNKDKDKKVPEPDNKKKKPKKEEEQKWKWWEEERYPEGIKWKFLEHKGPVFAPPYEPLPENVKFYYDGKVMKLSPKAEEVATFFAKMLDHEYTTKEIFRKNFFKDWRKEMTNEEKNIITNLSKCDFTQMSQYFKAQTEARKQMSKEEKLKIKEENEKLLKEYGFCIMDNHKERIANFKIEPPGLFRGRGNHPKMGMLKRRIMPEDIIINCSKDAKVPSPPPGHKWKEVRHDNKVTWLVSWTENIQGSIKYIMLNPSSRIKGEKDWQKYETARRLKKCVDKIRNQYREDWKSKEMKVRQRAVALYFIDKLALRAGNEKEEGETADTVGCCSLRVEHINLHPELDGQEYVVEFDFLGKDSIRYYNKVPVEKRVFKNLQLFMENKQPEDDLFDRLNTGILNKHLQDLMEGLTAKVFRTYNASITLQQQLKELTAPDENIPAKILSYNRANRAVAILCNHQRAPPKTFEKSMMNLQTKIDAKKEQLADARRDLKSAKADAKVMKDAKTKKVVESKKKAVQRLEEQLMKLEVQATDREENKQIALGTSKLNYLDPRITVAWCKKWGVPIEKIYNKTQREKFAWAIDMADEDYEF
Experimental: as §1, §2
The wild-type HTop1 (91 kDa) was purified from Sf-9 insect cells infected with the recombinant baculovirus (a kind gift from Prof. J. J. Champoux). Approximately, 1 * 10^9 Sf-9 cells were infected with the recombinant virus, and cells were harvested after 48-h of infection. The cells were lysed and enzyme was purified as described. Briefly, at 48 h post-infection, approximately 3 * 10^9 Sf-9 cells were harvested by centrifugation for 5 min at 400 * g. The cells were resuspended in 1 liter of ice-cold phosphate-buffered saline and centrifuged for 5 min at 400 * g. The nuclei were washed twice in 80 ml of lysis buffer minus Triton X-100 and resuspended in 40 ml of resuspension buffer (50 mM KCl, 10 mM Tris-Cl, pH 7.5, 2 mM MgCl2, 25 mM DTT, 0.4 mg/ml phenylmethylsulfonyl fluoride, 0.12 mg/ml aprotinin). The nuclear extract was stirred for 5 min at ~200 rpm. With continued stirring, 50 ml of polyethylene glycol (PEG) buffer (18% PEG 8000, 1 M NaCl, 10% glycerol) was added dropwise in order to precipitate the DNA. The PEG precipitate was pelleted by centrifugation and the resulting PEG supernatant was dialyzed against 4 liters of potassium phosphate buffer. The dialyzed PEG supernatant passed over a 10-ml bed volume of phosphocellulose (Whatman P11) equilibrated with PPB. The HTop1 flowed through the PS column and then passed over a Mono Q column followed by loaded onto a Mono S column. The Mono S column was eluted with a 25-ml 50–200 mM KPO4, pH 7.4, gradient. […] The peak Mono S fractions were pooled, concentrated with an Amicon ultrafiltration cell, dialyzed into storage buffer (50% glycerol, 10 mM Tris-hydrochloride, pH 7.5, 1 mM DTT, 1 mM EDTA), and stored at −20 °C.

[2] = LdTop1 relaxation, 12.5 uM, read-out: % inhibition, mean data
[3] = LdTop1 relaxation, 25 uM, read-out: % inhibition, mean data
[4] = LdTop1 relaxation, 50 uM, read-out: % inhibition, mean data
[5] = LdTop1 relaxation, 100 uM, read-out: % inhibition, mean data
[6] = plasmid DNA relaxation, averages of three experiments, read-out: LDTop1 inhibition (EC50)
[7] = read-out: % inhibition (CPT 100%), data 1, LdTop1 relaxation, 12.5 uM
[8] = read-out: % inhibition (CPT 100%), data 1, LdTop1 relaxation, 25 uM
[9] = read-out: % inhibition (CPT 100%), data 1, LdTop1 relaxation, 50 uM
[10] = read-out: % inhibition (CPT 100%), data 1, LdTop1 relaxation, 100 uM
[11] = read-out: % inhibition (CPT 100%), data 2, LdTop1 relaxation, 12.5 uM
[12] = read-out: % inhibition (CPT 100%), data 2, LdTop1 relaxation, 25 uM
[13] = read-out: % inhibition (CPT 100%), data 2, LdTop1 relaxation, 50 uM
[14] = read-out: % inhibition (CPT 100%), data 2, LdTop1 relaxation, 100 uM
[15] = supplement sheet Ld Top 1 data, concentrations in uM, read-out: EC50 (LdTop1, supplement sheet)

Leishmania donovani Topoisomerase 1 (LdTop1), sequence (Q8WQM6 entry or part of it): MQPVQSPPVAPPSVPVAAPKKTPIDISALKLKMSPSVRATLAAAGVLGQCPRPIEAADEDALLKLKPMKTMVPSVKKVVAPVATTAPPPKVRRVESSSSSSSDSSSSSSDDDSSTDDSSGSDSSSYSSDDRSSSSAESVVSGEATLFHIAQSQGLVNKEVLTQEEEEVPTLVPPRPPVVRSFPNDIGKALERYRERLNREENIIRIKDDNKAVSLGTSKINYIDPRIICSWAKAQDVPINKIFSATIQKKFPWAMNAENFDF
Leishmania donovani Topoisomerase 1 (LdTop1), sequence (A0A3Q8IHS4 entry or part of it): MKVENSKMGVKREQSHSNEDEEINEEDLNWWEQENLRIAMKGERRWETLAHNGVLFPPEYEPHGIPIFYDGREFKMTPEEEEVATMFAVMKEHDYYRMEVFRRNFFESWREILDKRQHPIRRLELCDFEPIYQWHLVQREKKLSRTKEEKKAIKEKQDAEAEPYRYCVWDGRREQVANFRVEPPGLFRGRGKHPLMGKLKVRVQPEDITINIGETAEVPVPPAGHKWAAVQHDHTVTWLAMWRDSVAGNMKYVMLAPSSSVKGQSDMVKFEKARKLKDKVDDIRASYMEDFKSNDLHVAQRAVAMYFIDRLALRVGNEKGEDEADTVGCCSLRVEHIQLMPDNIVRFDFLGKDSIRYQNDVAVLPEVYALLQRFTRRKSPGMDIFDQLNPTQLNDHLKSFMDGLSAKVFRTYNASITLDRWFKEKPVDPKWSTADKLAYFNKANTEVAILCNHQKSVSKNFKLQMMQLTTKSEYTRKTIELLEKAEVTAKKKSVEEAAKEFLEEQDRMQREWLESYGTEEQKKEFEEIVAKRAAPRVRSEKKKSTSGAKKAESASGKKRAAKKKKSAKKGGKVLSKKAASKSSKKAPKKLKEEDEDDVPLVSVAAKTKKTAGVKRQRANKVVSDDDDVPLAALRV

Row | Structure (SMILES) | inhibition at 12.5 µM [1, 2] | inhibition at 25 µM [1, 3] | inhibition at 50 µM [1, 4] | inhibition at 100 µM [1, 5] | LdTop1 inhibitory activity ([1]; plasmid DNA relaxation) | EC50 [1, 6] | inhibition at 12.5 µM [1, 7] | inhibition at 25 µM [1, 8] | inhibition at 50 µM [1, 9] | inhibition at 100 µM [1, 10] | inhibition at 12.5 µM [1, 11] | inhibition at 25 µM [1, 12] | inhibition at 50 µM [1, 13] | inhibition at 100 µM [1, 14] | EC50 [1, 15] | EC50 (Human Top1 (HTop1)) | other results
1 | Cc1cc2c(c(=O)[nH]1)C(=O)O/C2=C\c1ccc(F)c(F)c1 [Compound 8] |  |  |  |  | complete loss of activity | > 100 µM |  |  |  |  |  |  |  |  |  | > 100 µM | 
2 | Cc1cc2c(c(=O)[nH]1)C(=O)O/C2=C\c1cccc(Br)c1 [Compound 9] | 52.2% | 68.2% | 88.4% | 93% | considerable activity | 7.51 ± 1.02 µM | 52.9% | 69.6% | 89.7% | 95.5% | 51.4% | 66.8% | 87.2% | 90.5% | 7.51 µM | > 100 µM | 
3 | Cc1cc2c(c(=O)[nH]1)C(=O)O/C2=C\c1ccc(Br)cc1 [Compound 10] |  |  |  |  |  | > 100 µM |  |  |  |  |  |  |  |  |  | > 100 µM | 
4 | Cc1cc2c(c(=O)[nH]1)C(=O)O/C2=C\c1cccc2ccccc12 [Compound 11] |  |  |  |  | no inhibitory activity at all | > 100 µM |  |  |  |  |  |  |  |  |  | > 100 µM | 
5 | COc1cccc(/C=C2\OC(=O)c3c2cc(C)[nH]c3=O)c1OC [Compound 12] |  |  |  |  | inactive | > 100 µM |  |  |  |  |  |  |  |  |  | > 100 µM | 
6 | Cc1cc2c(c(=O)[nH]1)C(=O)O/C2=C\c1ccccc1 [Compound 13] |  |  |  |  |  | > 100 µM |  |  |  |  |  |  |  |  |  | > 100 µM | 
7 | Cc1cc2c(c(=O)[nH]1)C(=O)O/C2=C\c1cccc(Cl)c1 [Compound 14] | 30.6% | 48.1% | 61.5% | 87.2% | considerable activity |  | 32% | 46.9% | 58.6% | 88.2% | 29.1% | 49.4% | 64.3% | 86.2% | 35.6 µM | > 100 µM | % inhibition (CPT 100%), data 1 ([1]; LdTop1 relaxation, 12.5 uM): 32.026%; % inhibition (CPT 100%), data 1 ([1]; LdTop1 relaxation, 25 uM): 46.8807%; % inhibition, mean data ([1]; LdTop1 relaxation, 50 uM): 61.4846%; % inhibition (CPT 100%), data 1 ([1]; LdTop1 relaxation, 100 uM): 88.2434%; % inhibition (CPT 100%), data 2 ([1]; LdTop1 relaxation, 100 uM): 86.2086%; % inhibition, mean data ([1]; LdTop1 relaxation, 100 uM): 87.226%

Further lines, with some results ahead:

Row | inhibition at 12.5 µM [1, 2] | inhibition at 25 µM [1, 3] | inhibition at 50 µM [1, 4] | inhibition at 100 µM [1, 5] | LdTop1 inhibitory activity ([1]; plasmid DNA relaxation) | EC50 [1, 6] | inhibition at 12.5 µM [1, 7] | inhibition at 25 µM [1, 8] | inhibition at 50 µM [1, 9] | inhibition at 100 µM [1, 10] | inhibition at 12.5 µM [1, 11] | inhibition at 25 µM [1, 12] | inhibition at 50 µM [1, 13] | inhibition at 100 µM [1, 14] | EC50 [1, 15] | EC50 (Human Top1 (HTop1)) | Structure (SMILES) | other results
8 | 50.1% | 65.2% | 85.1% | 99.5% | considerable activity | 10 µM and 10.1 µM | 50.1% | 66.8% | 85.8% | 100% | 50.1% | 63.7% | 84.4% | 98.9% | 10.2 µM | > 100 µM | COc1ccc(/C=C2\OC(=O)c3c2cc(C)[nH]c3=O)c(C)c1C [Compound 2] | 
9 | 52.5% | 67.3% | 87.5% | 91.3% | considerable activity | 9.06 ± 1.77 µM | 51.2% | 68.8% | 88.7% | 93.7% | 53.7% | 65.8% | 86.2% | 88.9% | 9.06 µM | > 100 µM | Cc1cc2c(c(=O)[nH]1)C(=O)O/C2=C\c1ccccc1C(F)(F)F [Compound 3] | 
10 |  |  |  |  | no inhibitory activity at all | > 100 µM |  |  |  |  |  |  |  |  |  | > 100 µM | Cc1cc2c(c(=O)[nH]1)C(=O)O/C2=C\c1c[nH]c2ccccc12 [Compound 5] | 
11 |  |  |  |  | complete loss of activity | > 100 µM |  |  |  |  |  |  |  |  |  | > 100 µM | Cc1cc2c(c(=O)[nH]1)C(=O)O/C2=C\c1ccc2c(c1)OCO2 [Compound 6] | 
